Data reported in US7875647B2, “Heteroaryl-pyrazole derivatives as cannabinoid CB1 receptor antagonists” (Green Cross Corporation, priority 2006, dated 2011).

target: T1, Cannabinoid-1 receptor (CB1R) (Rattus norvegicus, UniProt P20272); assay: Cannabinoid-1 receptor (CB1R) binding affinity assay ([3H]CP-55940, rat CB-1 receptor binding protocol); conditions: IC50(nM), brain tissue of SD rats, [3H]CP-55940, 30° C. 60 min
T1 construct: The tissue obtained from the brain of SD rats was homogenized; from tissue; host or cells: brain of SD rats (membrane pellet of the homogenate)
T1 sequence (P20272 whole entry): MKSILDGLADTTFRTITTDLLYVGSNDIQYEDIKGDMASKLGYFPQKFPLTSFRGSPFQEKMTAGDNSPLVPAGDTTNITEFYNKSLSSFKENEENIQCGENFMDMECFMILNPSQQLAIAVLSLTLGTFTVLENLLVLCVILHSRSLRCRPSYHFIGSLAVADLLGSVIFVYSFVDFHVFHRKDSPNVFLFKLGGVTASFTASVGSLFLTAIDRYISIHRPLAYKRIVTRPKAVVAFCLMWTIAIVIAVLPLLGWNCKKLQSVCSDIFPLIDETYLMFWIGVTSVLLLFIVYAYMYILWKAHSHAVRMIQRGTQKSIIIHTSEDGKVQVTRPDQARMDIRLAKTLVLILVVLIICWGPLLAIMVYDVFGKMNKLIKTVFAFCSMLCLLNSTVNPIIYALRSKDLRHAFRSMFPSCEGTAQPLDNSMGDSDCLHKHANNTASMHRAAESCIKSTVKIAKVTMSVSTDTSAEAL

Compound | IC50
CCCCC(C)c1nnc(-c2nn(-c3ccc(Cl)cc3Cl)c(-c3ccc(Br)cc3)c2C)s1 (stereo not shown) [Example 380, 2-(5-(4-Bromophenyl)-1-(2,4-dichlorophenyl)-4-methyl-1H-pyrazol-3-yl)-5-(hexan-2-yl)-1,3,4-thiadiazole] | 11.5 nM
Cc1c(-c2nnc(C3CC=CC3)s2)nn(-c2ccc(Cl)cc2Cl)c1-c1ccc(Cl)cc1 [Example 384, 2-(5-(4-chlorophenyl)-1-(2,4-dichlorophenyl)-4-methyl-1H-pyrazol-3-yl)-5-(cyclopent-3-enyl)-1,3,4-thiadiazole] | 20.2 nM

same assay, conditions: brain tissue of SD rats, [3H]CP-55940, 30° C. 60 min; read-out: IC50

IC50 | Compound
36.1 nM | Cc1c(-c2nnc(C3CCCCCC3)s2)nn(-c2ccc(Cl)cc2Cl)c1-c1ccc(Cl)cc1 [Example 362, 2-(5-(4-Chlorophenyl)-1-(2,4-dichlorophenyl)-4-methyl-1H-pyrazol-3-yl)-5-cycloheptyl-1,3,4-thiadiazole]
34.4 nM | Cc1c(-c2nnc(C3CCC3)s2)nn(-c2ccc(Cl)cc2Cl)c1-c1ccc(Br)cc1 [Example 364, 2-(5-(4-Bromophenyl)-1-(2,4-dichlorophenyl)-4-methyl-1H-pyrazol-3-yl)-5-cyclobutyl-1,3,4-thiadiazole]
20.4 nM | Cc1c(-c2nnc(CC3CCCCC3)s2)nn(-c2ccc(Cl)cc2Cl)c1-c1ccc(Cl)cc1 [Example 365, 2-(5-(4-Chlorophenyl)-1-(2,4-dichlorophenyl)-4-methyl-1H-pyrazol-3-yl)-5-(cyclohexylmethyl)-1,3,4-thiadiazole]
18.1 nM | Cc1c(-c2nnc(C3CCCC3)s2)nn(-c2ccc(Cl)cc2Cl)c1-c1ccc(Br)cc1 [Example 366, 2-(5-(4-Bromophenyl)-1-(2,4-dichlorophenyl)-4-methyl-1H-pyrazol-3-yl)-5-cyclopentyl-1,3,4-thiadiazole]
67.7 nM | Cc1c(-c2nnc(CC3CC3)s2)nn(-c2ccc(Cl)cc2Cl)c1-c1ccc(Cl)cc1 [Example 370, 2-(5-(4-Chlorophenyl)-1-(2,4-dichlorophenyl)-4-methyl-1H-pyrazol-3-yl)-5-(cyclopropylmethyl)-1,3,4-thiadiazole]
20.5 nM | Cc1c(-c2nnc(C3CCCCC3)s2)nn(-c2ccc(Cl)cc2Cl)c1-c1ccc(Br)cc1 [Example 373, 2-(5-(4-Bromophenyl)-1-(2,4-dichlorophenyl)-4-methyl-1H-pyrazol-3-yl)-5-cyclohexyl-1,3,4-thiadiazole]
30.5 nM | CCc1c(-c2nnc(C3CCCCC3)s2)nn(-c2ccc(Cl)cc2Cl)c1-c1ccc(Br)cc1 [Example 374, 2-(5-(4-Bromophenyl)-1-(2,4-dichlorophenyl)-4-ethyl-1H-pyrazol-3-yl)-5-cyclohexyl-1,3,4-thiadiazole]
18.7 nM | CCc1c(-c2nnc(C3CCCC3)s2)nn(-c2ccc(Cl)cc2Cl)c1-c1ccc(Br)cc1 [Example 376, 2-(5-(4-Bromophenyl)-1-(2,4-dichlorophenyl)-4-ethyl-1H-pyrazol-3-yl)-5-cyclopentyl-1,3,4-thiadiazole]
31 nM | Cc1c(-c2nnc(C3CCCCCC3)s2)nn(-c2ccc(Cl)cc2Cl)c1-c1ccc(Br)cc1 [Example 378, 2-(5-(4-Bromophenyl)-1-(2,4-dichlorophenyl)-4-methyl-1H-pyrazol-3-yl)-5-cycloheptyl-1,3,4-thiadiazole]
60.3 nM | Cc1c(-c2nnc(NC3CCCCC3)s2)nn(-c2ccc(Cl)cc2Cl)c1-c1ccc(Cl)cc1 [Example 382, 5-(5-(4-chlorophenyl)-1-(2,4-dichlorophenyl)-4-methyl-1H-pyrazol-3-yl)-N-cyclohexyl-1,3,4-thiadiazol-2-amine]
85.3 nM | Cc1c(-c2nnc(C3CC=CCC3)s2)nn(-c2ccc(Cl)cc2Cl)c1-c1ccc(Cl)cc1 (stereo not shown) [Example 383, 2-(5-(4-chlorophenyl)-1-(2,4-dichlorophenyl)-4-methyl-1H-pyrazol-3-yl)-5-(cyclohex-3-enyl)-1,3,4-thiadiazole]

The next lines start with the compound.

Compound | IC50
CCC(C)c1nnc(-c2nn(-c3ccc(Cl)cc3Cl)c(-c3ccc(Cl)cc3)c2C)s1 (stereo not shown) [Example 367, 2-sec-Butyl-5-(5-(4-chlorophenyl)-1-(2,4-dichlorophenyl)-4-methyl-1H-pyrazol-3-yl)-1,3,4-thiadiazole] | 24.8 nM
CCCC(C)c1nnc(-c2nn(-c3ccc(Cl)cc3Cl)c(-c3ccc(Cl)cc3)c2C)s1 (stereo not shown) [Example 368, 2-(5-(4-Chlorophenyl)-1-(2,4-dichlorophenyl)-4-methyl-1H-pyrazol-3-yl)-5-(pentan-2-yl)-1,3,4-thiadiazole] | 13.4 nM
Cc1c(-c2nnc(C(C)(C)C)s2)nn(-c2ccc(Cl)cc2Cl)c1-c1ccc(Br)cc1 [Example 369, 2-(5-(4-Bromophenyl)-1-(2,4-dichlorophenyl)-4-methyl-1H-pyrazol-3-yl)-5-tert-butyl-1,3,4-thiadiazole] | 12.5 nM
Cc1c(-c2nnc(C(C)(C)C)s2)nn(-c2ccc(Cl)cc2Cl)c1-c1ccc(Cl)cc1 [Example 372, 2-tert-Butyl-5-(5-(4-chlorophenyl)-1-(2,4-dichlorophenyl)-4-methyl-1H-pyrazol-3-yl)-1,3,4-thiadiazole] | 25.2 nM
CCc1c(-c2nnc(C3CCC3)s2)nn(-c2ccc(Cl)cc2Cl)c1-c1ccc(Br)cc1 [Example 375, 2-(5-(4-Bromophenyl)-1-(2,4-dichlorophenyl)-4-ethyl-1H-pyrazol-3-yl)-5-cyclobutyl-1,3,4-thiadiazole] | 18.5 nM
CCc1c(-c2nnc(C(C)(C)C)s2)nn(-c2ccc(Cl)cc2Cl)c1-c1ccc(Br)cc1 [Example 377, 2-(5-(4-Bromophenyl)-1-(2,4-dichlorophenyl)-4-ethyl-1H-pyrazol-3-yl)-5-tert-butyl-1,3,4-thiadiazole] | 9.57 nM
CCCCC(C)c1nnc(-c2nn(-c3ccc(Cl)cc3Cl)c(-c3ccc(Cl)cc3)c2C)s1 (stereo not shown) [Example 379, 2-(5-(4-Chlorophenyl)-1-(2,4-dichlorophenyl)-4-methyl-1H-pyrazol-3-yl)-5-(hexan-2-yl)-1,3,4-thiadiazole] | 16.9 nM
Cc1c(-c2nnc(C(C)c3ccccc3)s2)nn(-c2ccc(Cl)cc2Cl)c1-c1ccc(Cl)cc1 (stereo not shown) [Example 381, 2-(5-(4-chlorophenyl)-1-(2,4-dichlorophenyl)-4-methyl-1H-pyrazol-3-yl)-5-(1-phenylethyl)-1,3,4-thiadiazole] | 11.2 nM
Cc1c(-c2nnc(C(C)Cc3ccccc3)s2)nn(-c2ccc(Cl)cc2Cl)c1-c1ccc(Cl)cc1 (stereo not shown) [Example 385, 2-(5-(4-chlorophenyl)-1-(2,4-dichlorophenyl)-4-methyl-1H-pyrazol-3-yl)-5-(1-phenylpropan-2-yl)-1,3,4-thiadiazole] | 33.6 nM
CCc1c(-c2nnc(CC3CCCCC3)s2)nn(-c2ccc(Cl)cc2Cl)c1-c1ccc(Br)cc1 [Example 386, 2-(5-(4-bromophenyl)-1-(2,4-dichlorophenyl)-4-ethyl-1H-pyrazol-3-yl)-5-(cyclohexylmethyl)-1,3,4-thiadiazole] | 13.2 nM
Cc1c(-c2nnc(CC3CCCCC3)s2)nn(-c2ccc(Cl)cc2Cl)c1-c1ccc(Br)cc1 [Example 387, 2-(5-(4-bromophenyl)-1-(2,4-dichlorophenyl)-4-methyl-1H-pyrazol-3-yl)-5-(cyclohexylmethyl)-1,3,4-thiadiazole] | 24.3 nM
CCCCC(C)c1nnc(-c2nn(-c3ccc(Cl)cc3Cl)c(-c3ccc(Br)cc3)c2CC)s1 (stereo not shown) [Example 388, 2-(5-(4-bromophenyl)-1-(2,4-dichlorophenyl)-4-ethyl-1H-pyrazol-3-yl)-5-(hexan-2-yl)-1,3,4-thiadiazole] | 7.01 nM
